Laboratory results reported in patent US20110098492A1, “CLEANING COMPOSITIONS CONTAINING MID-RANGE ALKOXYLATES” (priority 2008, published 2011).

Tests used:
[1] = Pour point test (ASTM D97); assay type: physicochemical
Procedure: C) Pour Point Test: This test is carried out according to the protocol of ASTM Test D97.

[2] = background statement on commercial surfactants; cited from earlier work
[3] = Formula stability with LAS, sodium citrate and water; assay type: physicochemical; set-up: key to Formula stability: S = Stable; U = Unstable
Excerpt: When mixed with dodecyl benzene sulfonic acid (sodium salt), and sodium citrate in water, the surfactants of the present invention show enhanced formula stability relative to conventional surfactants.

[4] = Cleaning of cross-linked petroleum grease (1-octadecene soil); details: 1% by weight in water; cross-linked 1-octadecene soil
Excerpt: The same procedure used above for cross-linked triglycerides was used, except that 1-octadecene was used instead of Canola Oil.

[5] = Cleaning of cross-linked triglycerides (Gardner scrubber, soiled vinyl tile); set-up: key to Arbitrary Gray Value: mean gray value of tile image (ImageJ); details: 120 back-and-forth strokes, higher = better cleaning
Procedure: Test panels coated with mixtures of triglycerides and cross-linked triglycerides were prepared and evaluated using the following procedure. Cobalt Naphthenate was used as a catalyst to accelerate the oxidation of vegetable oil to give a hard varnish. Carbon black is added to the varnish to enable easy visual comparison of the ability to clean the cross-linked triglyceride from the surface.
Substrate Panels: White Vinyl Floor Tile: Tarket Corporation Azrock™ VS304-3 (6913) cut to 4¼×4¼ inch (to fit the Gardner Linear Motion Scrubber).
Soil Formulation: 100 grams Canola Oil (Food Grade, 100%, Kroger Co. Cincinnati, Ohio 45202); 2 grams Acetylene Carbon Black (Cat #39724, Alfa Aesar; Surface area=74 sq m/g); 20 grams drying agent: Cobalt Naphthenate Solution (Aldrich Cat #54,457-4, CAS #61789-51-3) (Comes as a 6% solution in petroleum solvent); Oven: Convection oven set at 160° F.
Scrubbing Tester: Gardco washability & Wear Tester; Linear Motion Test Equipment; Model D12-V Cat #WA-2164 (Paul N. Gardner Company, Inc. 316 N.E. First Street, Pompano, Beach, Fla. 33060.
Sponges: “Do-It” Cellulose Sponge, 1⅝ in thick, cut to 3″×4″. Manufactured by Bloch/New England for HWI, Fort Wayne, Ind. 46801;
Paint Brushes: Economy Chip Brush 1 Inch. www.lgsourcing.com Model #0106; Item #103407 obtained from Lowes, Inc. L. G. Sourcing, Inc. P.O. Box 1535 North Wilkseboro, N.C. 28659
Reflectance Meter: HunterLab ColorQuest XE
Prepare a stock solution by mixing 98 grams of canola oil (food grade) with 2.0 g acetylene-based carbon black (Cat #39724, Alfa Aesar; Surface area=74 sq m/g). Mix with a disperser at 2000 rpm for 15 min. (We used a Caframo Model BDC 3030 with a 0.50 dispersing blade).
Add 20.0 grams Cobalt Naphthenate Solution and mix well (by hand, using a glass stir rod).
Place 1.6 grams soil per 4×4 inch tile.
Paint to a thin film using a clean 1-inch economy brush. Use several strokes to get to an even coating. Use a clean, dry brush for each application. (After the application, each brush can be cleaned with acetone, dried, and then re-used).
Place in a convection oven set at 160 F for 16 hours. We place the panels in an oven at 4:00 p.m, and then remove the panels at 8:00 a.m. the next morning. Let the panels cool for 1 hour.
Use the panels within 10 days
Place a panel in the Gardner Scrubber
[…] (We use 5.0 grams surfactant diluted to 500 mL water).
Prepare a sponge by rinsing several times in cold tap water. Completely squeeze out the sponge by hand.
After each test, rinse out the sponge 15-20 times (by repeated sorption and squeezing) until there is no noticeable surfactant solution left (usually indicated by a lack of foam).
Pour 500 mL of surfactant solution into a beaker
Place the sponge into the beaker—allowing it to soak up as much surfactant as possible.
Place the sponge into the Gardner Scrubber.
Pour the remaining liquid (approx 400 mL) over the test panel in the scrubber. There should be enough liquid to just cover the test panel.
Program the scrubber to perform 120 back-and-forth strokes (for a total of 240 linear strokes). We define each back-and-forth stroke as “1 stroke”
Remove the panel rinse with tap water
Clean the Gardner scrubber by rinsing with tap water.
Clean the sponge by squeezing it out under tap water 20-30 times until clean.
Remove excess water from the sponge by squeezing as much liquid out as possible.
After the panel is dry, either take pictures (for visual comparison of cleaning) or measure the reflectance using the Xyy mode of a Hunter Colorimeter. Alternatively, the mean gray value can be obtained by taking a picture of the tiles and processing computer image with ImageJ™ software, which is distributed freely by the National Institute of Health (nih.gov).

[6] = Ross-Miles foam height test (ASTM D1173); assay type: physicochemical
Procedure: A) Ross-Miles Foam Height Test: This test is carried out according to the protocol of ASTM […].

[7] = Gel range in water at 23 C; assay type: physicochemical; set-up: key: L = Liquid; G = Gel; TL = Thick Liquid
Procedure: One way the industry expresses a tendency of a surfactant to cause gels is a “gel range.” A typical gel range describes a percentage of samples that form gels, out of a number of samples, each having increasing surfactant concentration. […] A sample forms a gel when it is non-pourable for at least five seconds at 23° centigrade (° C.) when its container is inverted 180° so the container's open spout or mouth faces down. For many applications, a surfactant ideally has no gel range.
D) Gel range: Ten surfactant solutions are made using 0%, 10%, 20%, 30%, 40%, 50%, 60%, 70%, 80%, 90% water. […] The test is run at 23 C.

Pour Point [1]: 30 ° F.
Formula stability ([3]; 15% LAS/0% Na Cit in water): U
Formula stability ([3]; 15% LAS/1% Na Cit in water): U
Formula stability ([3]; 15% LAS/2% Na Cit in water): U
Formula stability ([3]; 15% LAS/4% Na Cit in water): U
Ross Miles Foam Height, millimeters, 5 Minutes ([6]; 5 Minutes): 35 millimeters
Ross Miles Foam Height, millimeters, Initial ([6]; Initial (0 sec)): 145 millimeters
Gel Range, Percent Surfactant in Water at 23 C. ([7]; 10% surfactant in water): L
Gel Range, Percent Surfactant in Water at 23 C. ([7]; 20% surfactant in water): L
Gel Range, Percent Surfactant in Water at 23 C. ([7]; 30% surfactant in water): L
Gel Range, Percent Surfactant in Water at 23 C. ([7]; 40% surfactant in water): L
Gel Range, Percent Surfactant in Water at 23 C. ([7]; 50% surfactant in water): L
Gel Range, Percent Surfactant in Water at 23 C. ([7]; 60% surfactant in water): G
Gel Range, Percent Surfactant in Water at 23 C. ([7]; 70% surfactant in water): G
Gel Range, Percent Surfactant in Water at 23 C. ([7]; 80% surfactant in water): G
Gel Range, Percent Surfactant in Water at 23 C. ([7]; 90% surfactant in water): L
Substance: nonylphenoxy (polyoxyethylene-9) [NP-9, reference compound]
gel formation / gel range when mixed with water (in words) [2]: forms resilient, slow-dissolving gels
Arbitrary Gray Value [4]: 95
Arbitrary Gray Value ([5]; 0.5% by weight in water): 108
Arbitrary Gray Value ([5]; 1% by weight in water): 177
